Format in all cases: functional
Assay [1] relates to Bacillus cereus. As to the kind of experiment: The compound was tested in vitro for antimicrobial activity against gram-positive bacteria Bacillus cereus (ATCC 14579) by conventional paper disk; 7-8.
Assay [2] deals with Prescottella equi. The assay can be described thus: The compound was tested in vitro for antimicrobial activity against gram-positive bacteria Corynebacterium equi (IFO 3720) by conventional paper disk; 7-8.
Assay [3] relates to Streptomyces chartreusis. The assay can be described thus: The compound was tested in vitro for antimicrobial activity against […] bacteria Streptomyces chartreusis (NRRL 11407) by conventional paper disk; 9-10.
The test system of assay [4] is Streptomyces chartreusis. The assay can be described thus: The compound was tested in vitro for antimicrobial activity against […] bacteria Streptomyces chartreusis (NRRL 11407) by conventional paper disk; 7-8.
In assay [5] the test system is Enterococcus faecalis. The assay can be described thus: The compound was tested in vitro for antimicrobial activity against gram-positive bacteria Enterococcus faecalis (ATCC 11700) by conventional paper disk; 7-8.
Assay [6] deals with Prescottella equi. The assay can be described thus: The compound was tested in vitro for antimicrobial activity against gram-positive bacteria Corynebacterium equi (IFO 3720) by conventional paper disk; 9-10.

Consider `CCCn1c(-c2c[nH]c3ccccc23)c(-c2c[nH]c3ccccc23)oc1=O`, for which the Inhibition zone is 7 mm in assay [1], 7 mm in assay [2] and 9 mm in assay [3].

Regarding `O=c1oc(-c2c[nH]c3ccccc23)c(-c2c[nH]c3ccccc23)n1Cc1ccccc1`, the Inhibition zone in assay [1], in assay [4] and in assay [2] was 7 mm each time.

`C[C@H](C(=O)O)n1c(-c2c[nH]c3ccccc23)c(-c2c[nH]c3ccccc23)oc1=O`: the Inhibition zone stood at 7 mm in assay [5], 7 mm in assay [1], 7 mm in assay [2] and 9 mm in assay [3].

Consider `C=CCn1c(-c2c[nH]c3ccccc23)c(-c2c[nH]c3ccccc23)oc1=O`, for which the Inhibition zone in assay [1] was determined as 7 mm; in assay [3], 9 mm; in assay [6], 9 mm.
